Test results reported in patent US20250221410A1, “SUBSTITUTED 2-C-AZINES AND SALTS THEREOF, AND USE THEREOF AS HERBICIDAL ACTIVE SUBSTANCES” (BAYER AKTIENGESELLSCHAFT, priority 2022, published 2025).

Columns and labels:
Assay type in all cases: in vivo
[1] = system: AMARE: Amaranthus retroflexus; assay: Post-emergence herbicidal efficacy at 80 g/ha, AMARE; settings: visual rating about 3 weeks after treatment vs untreated controls
Experimental: (§1) Seeds of monocotyledonous and dicotyledonous weeds and crop plants were placed in sandy loam in plastic or organic planting pots, covered with soil and cultivated in a greenhouse under controlled growth conditions. 2 to 3 weeks after sowing, the test plants were treated at the one-leaf stage. The compounds of the invention, formulated in the form of wettable powders (WP) or as emulsion concentrates (EC), were then sprayed onto the green parts of the plants as aqueous suspension or emulsion with addition of 0.5% additive at a water application rate of 600 l/ha (converted). After the test plants had been kept in the greenhouse under optimum growth conditions for about 3 weeks, the activity of the preparations was rated visually in comparison to untreated controls. For example, 100% activity=the plants have died, 0% activity=like control plants. Tables B1 to B10 below show the effects of selected compounds of the general formula (I) according to Table 1 on various harmful plants and an application rate corresponding to 80 g/ha, which were obtained by the experimental procedure mentioned above.

[2] = system: DIGSA: Digitaria sanguinalis; assay: Pre-emergence herbicide efficacy at 80 g/ha, DIGSA; settings: scored visually after about 3 weeks
Text: (§2) Seeds of monocotyledonous and dicotyledonous weed plants and crop plants were placed in plastic or organic planting pots and covered with soil. The compounds of the invention, formulated in the form of wettable powders (WP) or as emulsion concentrates (EC), were then applied to the surface of the covering soil as aqueous suspension or emulsion with addition of 0.5% additive at a water application rate equivalent to 600 l/ha. After the treatment, the pots were placed in a greenhouse and kept under good growth conditions for the test plants. After about 3 weeks, the efficacy of the preparations was scored visually in comparison with untreated controls as percentages. For example, 100% activity=the plants have died, 0% activity=like control plants. Tables D1 to D12 below show the effects of selected compounds of the general formula (I) according to Table 1 on various harmful plants and an application rate corresponding to 80 g/ha, which were obtained by the experimental procedure mentioned above.

[3] = system: AMARE: Amaranthus retroflexus; assay: Pre-emergence herbicide efficacy at 80 g/ha, AMARE; settings: scored visually after about 3 weeks
Text: as §2

POLCO = assay: Pre-emergence herbicide efficacy at 80 g/ha, POLCO; settings: Polygonum convolvulus, scored visually after about 3 weeks
Text: as §2

VERPE: Veronica persica = assay: Post-emergence herbicidal efficacy at 80 g/ha, VERPE; settings: visual rating about 3 weeks after treatment vs untreated controls
Experimental: as §1

## Fc1cnc(Cc2cccc(Cl)c2Oc2ncc(Cl)cn2)nc1 [Example 1-157]
[1]
  Post-emergence efficacy against AMARE: 80%
[2]
  Pre-emergence efficacy against DIGSA in %: 80%
[3]
  Pre-emergence efficacy against AMARE in %: 100%

## Cc1cccc(Cc2ncc(F)cn2)c1Oc1ncc(F)cn1 [Example 1-162]
[3]
  Pre-emergence efficacy against AMARE in %: 90%
POLCO
  Pre-emergence efficacy against POLCO in %: 80%

## Cc1cccc(Cc2ncc(Cl)cn2)c1Oc1ncc(F)cn1 [Example 1-165]
[2]
  Pre-emergence efficacy against DIGSA in %: 80%
POLCO
  Pre-emergence efficacy against POLCO in %: 80%

## O=S(=O)(CCCC(F)(F)F)Oc1c(F)cccc1Cc1ncc(Br)cn1 [Example 1-186]
VERPE: Veronica persica
  Post-emergence efficacy against VERPE: 90%
[1]
  Post-emergence efficacy against AMARE: 90%

## O=S(=O)(CCC(F)(F)F)Oc1c(F)cccc1Cc1ncc(Br)cn1 [Example 1-187]
VERPE: Veronica persica
  Post-emergence efficacy against VERPE: 90%
[1]
  Post-emergence efficacy against AMARE: 90%
[3]
  Pre-emergence efficacy against AMARE in %: 100%

## Cc1cccc(Cc2ncc(Cl)cn2)c1OS(=O)(=O)CCC(F)(F)F [Example 1-189]
VERPE: Veronica persica
  Post-emergence efficacy against VERPE: 90%
[3]
  Pre-emergence efficacy against AMARE in %: 80%

## O=S(=O)(CCCCl)Oc1c(F)cccc1Cc1ncc(Br)cn1 [Example 1-192]
VERPE: Veronica persica
  Post-emergence efficacy against VERPE: 80%

## O=S(=O)(CCCCl)Oc1c(F)cccc1Cc1ncc(Cl)cn1 [Example 1-193]
VERPE: Veronica persica
  Post-emergence efficacy against VERPE: 90%
[1]
  Post-emergence efficacy against AMARE: 90%
